According to patent US5563125A, “5'-deoxy-5'-(substituted)alkylthioribose compounds and their pharmaceutical compositions” (priority 1992, dated 1996):

How the values were obtained:
[1] = test system: L1210 cells (MTA phosphorylase-deficient); test: Growth inhibition of L1210 cells; type: cell-based, mouse; settings: L1210, 48 h
Experimental: (§1) L1210, L5178Y and MOLT-4 cell lines were grown in RPMI 1640 and 10% Nu Serum (Collaborative Research Inc., Lexington, Mass.) and CCRF-CEM cells were grown in 10% Horse Serum (Gibco Laboratories, Grand Island, N.Y.) and maintained as previously described for suspension cultures by Pera et al. in Cancer Res. 46, 1148, 1986. Cell cultures (0.3×10^5 cells/ml) were treated with each compound at 0.1 to 1000 μM to determine the concentration that inhibited growth by 50% (IC50) at 48 hr for the L1210 and L5178Y cells and at 96 hr for the CCRF-CEM and MOLT-4 cells. The incubation times allowed approximately 4 cell doublings in each cell line. All compounds were freshly prepared prior to treatment by dissolving in DMSO and diluting in serum-free media. Cells were counted by electron particle counting (Model XF' Coulter Counter; Coulter Electronics, Hialeah, Fla.).
(§2) For each compound, the concentrations required to inhibit cell growth by 50% (IC50 values) are shown in Table 7 for two murine leukemic cell lines, L1210 and L5178Y [MTA phosphorylase-deficient and MTA phosphorylase-containing, respectively] and two human leukemic cell lines, CCRF-CEM and MOLT-4 [MTA phosphorylase-deficient and MTA phosphorylase-containing, respectively]. ETA, MFETA, HETA and PTA had lower IC50 values in the L5178Y cells than in the L1210 cells. […] This differential is consistent with the possibility that, in L5178Y cells, MFETA is cleaved by MTA phosphorylase to the growth inhibitory metabolite, 5-monofluoroethylthioribose-1-phosphate (MFETR-1-P).

[2] = test system: T. b. brucei LAB 110 EATRO; test: In vivo antitrypanosomal activity, LAB EATRO mouse infection model; settings: 7 days, miniosmotic pump
Experimental: ^a Animals were treated with surgically implanted miniosmotic pumps
loaded as per manufacturers instructions with MTA, HETA or MFETA suspende

[3] = test system: CCRF-CEM cells (MTA phosphorylase-deficient); test: Growth inhibition of CCRF-CEM cells; type: cell-based, human; settings: 96 h
Experimental: as §1, §2

[4] = biological target: T1, Mouse Liver MTA Phosphorylase (Mus musculus, UniProt Q9CQ65); test: Mouse liver MTA phosphorylase substrate/inhibitor assay; type: biochemical; settings: for Substrate (% Control): substrate activity relative to MTA
T1 sequence (Q9CQ65 1-283): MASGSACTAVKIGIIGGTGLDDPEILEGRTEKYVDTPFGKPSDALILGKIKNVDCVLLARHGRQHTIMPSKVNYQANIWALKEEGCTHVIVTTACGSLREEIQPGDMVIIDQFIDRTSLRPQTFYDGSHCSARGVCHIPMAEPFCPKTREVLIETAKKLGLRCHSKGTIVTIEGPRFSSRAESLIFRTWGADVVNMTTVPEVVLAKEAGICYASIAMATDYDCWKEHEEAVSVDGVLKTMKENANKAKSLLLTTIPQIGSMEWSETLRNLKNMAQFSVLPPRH
Experimental: ^a MTA phosphorylase activity was assayed as described in Sufrin et

[5] = test system: MOLT-4 cells (MTA phosphorylase-containing); test: Growth inhibition of MOLT-4 cells; type: cell-based, human; settings: MOLT-4, 96 h
Experimental: as §1, §2

[6] = test system: L5178Y cells (MTA phosphorylase-containing); test: Growth inhibition of L5178Y cells; type: cell-based, mouse; settings: 48 h
Experimental: as §1, §2

[7] = biological target: T2, T. b. brucei MTA phosphorylase (Trypanosoma brucei, UniProt Q57XS4); test: T. b. brucei MTA phosphorylase substrate assay; type: biochemical; settings: relative to MTA
T2 construct: MTA or analogs as substrates
Experimental: ^a MTA phosphorylase was assayed according to Ghoda et al., using 200
μM MTA (saturating) or analogs as substrates. Specific activities of
the dialyzed enzyme preparations were with 50 mM PO4, 104.97 n
moles/mg protein/h; without PO4, 28.27 n moles/mg protein/h. Results
are expressed as percent activity compared to as substrate with and
without PO4, respectively.

[8] = test system: T. b. brucei procyclic trypanosomes (Lab 110 EATRO strain); test: In vitro antitrypanosomal activity, procyclic trypanosomes in T2 medium; type: cell-based, Trypanosoma brucei brucei; settings: 3-5 days
Experimental: The antitrypanosomal effects of HETA and other nucleosides were examined in the Lab 110 EATRO strain of T. b. brucei in culture.
Cells were cultured as described in Bacchi et al. Exp. Parasitol. 68, 392, 1989. Cells were then grown in the presence of the compounds for 3-5 days. Drugs were filtered, sterilized and added aseptically. Control cells achieved a maximum density of 1.5-3.5×10^7 /ml. Hemocytometer counts were made daily and the results were expressed as a percent of control growth. IC50 plots were obtained by graphing log (drug) vs. percent growth inhibition.
Trypanocidal Activity of MTA and MTR Analogs
against T. b. brucei procyclic trypanosomes in T2 medium.

T2 sequence (Q57XS4 entry or part of it): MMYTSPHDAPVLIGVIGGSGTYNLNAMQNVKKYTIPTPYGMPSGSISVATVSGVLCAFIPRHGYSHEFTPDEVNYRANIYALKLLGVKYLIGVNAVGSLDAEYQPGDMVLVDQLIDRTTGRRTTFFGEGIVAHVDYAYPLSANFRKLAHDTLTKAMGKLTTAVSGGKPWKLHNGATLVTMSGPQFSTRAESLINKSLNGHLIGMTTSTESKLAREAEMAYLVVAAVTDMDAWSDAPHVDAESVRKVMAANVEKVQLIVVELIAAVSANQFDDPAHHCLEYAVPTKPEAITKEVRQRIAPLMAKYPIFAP

For CSC[C@H]1O[C@@H](n2cnc3c(N)ncnc32)[C@H](O)[C@@H]1O [MTA, 5'-deoxy-5'-methylthioadenosine, reference compound], the IC50 ([1]; Mus musculus) was 850 ± 120 µM, the “% Cured” value ([2]; 25 mg/kg/day) was 0% and the “MSD (mean survival in days of animals dying of infection)” value (“MSD” below) ([2]; 25 mg/kg/day) was 5.0 days. The “Number Cured Total” value ([2]; 25 mg/kg/day) was 0/5, the “% Cured” value ([2]; 50 mg/kg/day) was 0% and the “MSD” value ([2]; 50 mg/kg/day) was 5.0 days. For the same compound, the “Number Cured Total” value ([2]; 50 mg/kg/day) was 0/5, the “% Cured” value ([2]; 100 mg/kg/day) was 0% and the “MSD” value ([2]; 100 mg/kg/day) was 5.0 days. For the same compound, the “Number Cured Total” value ([2]; 100 mg/kg/day) was 0/5, the IC50 ([3]; Homo sapiens) was 150 ± 60 µM and the “Substrate (% Control)” value [4] was 100 % Control. For the same compound, the IC50 ([5]; Homo sapiens) was 11 ± 7 µM, the IC50 ([6]; Mus musculus) was 200 ± 45 µM and the “Percent Control Activity” value ([7]; +50 mM PO4, 200 μM substrate) was 100%. The “Percent Control Activity” value ([7]; No PO4, 200 μM substrate) was 100%.
For Nc1ncnc2c1ncn2[C@@H]1O[C@H](CSCCCO)[C@@H](O)[C@H]1O [HPTA], the IC50 ([8]; Trypanosoma brucei) was 170 µM, the “Percent Control Activity” value ([7]; +50 mM PO4, 200 μM substrate) was 72.5% and the “Percent Control Activity” value ([7]; No PO4, 200 μM substrate) was 101.8%.
For N=C(N)c1ccc(N=NNc2ccc(C(=N)N)cc2)cc1 [BERENIL], the IC50 ([8]; Trypanosoma brucei) was 0.2 µM.
N=C(N)c1ccc(OCCCCCOc2ccc(C(=N)N)cc2)cc1 [PENTAMIDINE] gave an IC50 ([8]; Trypanosoma brucei) of 0.2 µM.
Compound Nc1ncnc2c1ncn2[C@@H]1O[C@H](CSCCBr)[C@@H](O)[C@H]1O [BETA, 5'-deoxy-5'-(bromoethylthio)adenosine] has an IC50 [1] of 150 µM, an IC50 [8] of 0.5 µM and an IC50 [3] of 250 ± 50 µM. For the same compound, the Ki [4] was 6.5 µM, the “Substrate (% Control)” value [4] was 38 % Control and the IC50 [5] was 25 ± 10 µM. For the same compound, the IC50 [6] was 150 µM, the “Percent Control Activity” value ([7]; +50 mM PO4, 200 μM substrate) was 88.8% and the “Percent Control Activity” value ([7]; No PO4, 200 μM substrate) was 120%.
